{
  "source": "patent US7078499B2",
  "about": "“Nucleotide analogues comprising a reporter moiety and a polymerase enzyme blocking moiety” (GE Healthcare UK Limited, priority 2000, dated 2006)",
  "type_in_all_cases": "biochemical",
  "design_in_all_cases": "key to result of incorporation (termination / further chain extension): T: Incorporation results in termination; E: Incorporation permits further chain extension; T/E: Predominant product is primer extended by one base, but evidence of some further extension also observed",
  "key": {"[1]": {"system": "deltaTts D DNA polymerase", "experiment": "Thermostable DNA polymerase primer extension, delta TTSD", "details": "DNA template, 45° C. for 20–40 minutes; for primer extended by at least one base within assay time (grade): TTP replaced entirely by test compound", "method": "(§1) DNA polymerase assays were performed using Sequence 1 as primer and Sequence 2 as template. • Sequence 1 5′[Cy3]TAACTCATTAACAGGATC 3′ • Sequence 2 5′AT TCGCGGTATTCTGGTATGAAGCTTTTAGATCCTGTTAATGAGTTA GTA3′\n(§2) The template (Sequence 2) was designed such that the base (underlined) immediately adjacent to the 3′ end of the hybridised primer is complementary to the nucleotide test compound. Nucleotide test compounds were compounds (6) (4′-C-(glycylaminomethyl)thymidine triphosphate), (8) (4′-C-(N-trifluoroacetyaminomethyl)thymidine triphosphate) and (9) (4′-C-(aminomethyl)thymidine triphosphate) as described above.\n(§3) Primer extension reactions were performed using the above primers in the presence of 40 to 80 μM of nucleotide triphosphates. Positive control reactions contained all four native nucleotide triphosphates. For the other reactions the TTP was replaced with either a 2:1 ratio of […] for the terminator control, or entirely by the test compound The enzymes were used at a final concentration of 0.175 units/μl and a magnesium ion concentration of 2.5 mM in buffers supplied by the manufacturer. The primer and template concentrations were 0.5 pmol/μl and 2 pmol/μl respectively.\n(§4) Extension reactions with thermophilic enzymes were performed by initially denaturing the fully assembled reactions at 70° C. for 5 min. followed by 45° C. for 20–40 minutes. The following enzymes were used: Taq DNA polymerase (Taq); Thermosequenase (TS); Thermosequenase II (TSII); Thermosequenase E (TSE), Tfl DNA polymerase (Tfl); Tth DNA polymerase (Tth), deltaTts DNA polymerase (deltaTts), deltaTts D DNA polymerase (dettaTTSD) (all from APBiotech); Pfu DNA polymerase (Pfu) (Stratagene Ltd); Vent™ DNA polymerase (Vent) (New England Biolabs).\n(§5) The reactions were stopped by adding a 0.5 volume aliquot of 80% formamide containing 0.1% (w/v) bromophenol blue and 0.1% (w/v) cresol blue. The reaction products were separated by denaturing gel electrophoresis at a constant power of 45 W on 16% polyacrylamide gels containing 50% urea.\n(§6) Gels were scanned for Cy3 fluorescence on a Molecular Dynamics Fluorimager and the data analysed using Molecular Dynamics ImageQuant 5 software.\n(§7) The incorporation of a test nucleotide triphosphate results in the appearance on a polyacrylamide gel of a single band corresponding to a single base extension product. If, however, the enzyme adds additional bases then further bands would be observed that corresponded to either the full-length product or positions of other complementary bases in the template."}, "[2]": {"target": "T1, Bst DNA polymerase (Geobacillus stearothermophilus, UniProt P52026)", "T1 construct": "purchased Cambio Ltd", "T1 sequence (P52026 1-876)": "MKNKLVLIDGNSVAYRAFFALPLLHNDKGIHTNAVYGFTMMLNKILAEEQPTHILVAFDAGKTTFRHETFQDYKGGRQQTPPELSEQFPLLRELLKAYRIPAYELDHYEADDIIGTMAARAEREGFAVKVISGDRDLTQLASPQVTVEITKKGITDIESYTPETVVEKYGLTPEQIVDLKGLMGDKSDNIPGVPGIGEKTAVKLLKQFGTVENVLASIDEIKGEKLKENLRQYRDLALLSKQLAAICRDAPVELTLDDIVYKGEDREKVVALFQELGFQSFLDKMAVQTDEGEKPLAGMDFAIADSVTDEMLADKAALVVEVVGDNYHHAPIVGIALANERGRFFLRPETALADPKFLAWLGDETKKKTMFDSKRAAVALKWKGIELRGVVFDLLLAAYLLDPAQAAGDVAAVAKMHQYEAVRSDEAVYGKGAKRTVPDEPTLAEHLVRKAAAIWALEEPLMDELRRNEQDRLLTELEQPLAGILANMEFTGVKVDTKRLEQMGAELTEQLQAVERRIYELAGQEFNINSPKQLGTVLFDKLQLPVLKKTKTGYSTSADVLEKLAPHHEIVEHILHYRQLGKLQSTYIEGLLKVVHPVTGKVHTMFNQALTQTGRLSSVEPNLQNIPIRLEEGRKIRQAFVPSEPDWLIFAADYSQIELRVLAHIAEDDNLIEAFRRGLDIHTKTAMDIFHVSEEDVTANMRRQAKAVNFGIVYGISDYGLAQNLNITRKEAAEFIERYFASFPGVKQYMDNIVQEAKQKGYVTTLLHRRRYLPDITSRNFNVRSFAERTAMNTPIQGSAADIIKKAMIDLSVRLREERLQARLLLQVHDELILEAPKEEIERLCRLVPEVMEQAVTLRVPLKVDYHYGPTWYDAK", "experiment": "Mesophilic DNA polymerase primer extension, Bst", "details": "DNA template, 37° C. for 20–40 minutes; for primer extended by at least one base within assay time (grade): TTP replaced entirely by test compound", "method": "as §1, §2, §3\n(§8) Extension reactions preformed with mesophilic polymerases were carried out by mixing all the components of the reaction except the enzyme and heating to 70° C. for 5 min. After the reactions had cooled to room temperature 0.175 units of the enzyme were added and the reactions heated to 37° C. for 20–40 minutes. The following enzymes were used: T7 DNA polymerase (T7); Sequenase 2™ (Seq); Klenow fragment of DNA polymerase 1 (Klen); phi-29 DNA polymerase (Phi-29); T4 DNA polymerase (T4) (all from AP Biotech) and Bst DNA polymerase (Bst) (Cambio Ltd).\nas §5, §6, §7"}, "[3]": {"system": "Thermosequenase II", "experiment": "Thermostable DNA polymerase primer extension, TSII", "details": "DNA template, 45° C. for 20–40 minutes; for primer extended by at least one base within assay time (grade): TTP replaced entirely by test compound", "method": "as §1, §2, §3, §4, §5, §6, §7"}, "[4]": {"target": "T2, Sequenase 2™ (Escherichia phage T7, UniProt P00581, DEL118-145)", "T2 construct": "purchased AP Biotech", "T2 sequence (P0AA25 2-109, stated change not applied)": "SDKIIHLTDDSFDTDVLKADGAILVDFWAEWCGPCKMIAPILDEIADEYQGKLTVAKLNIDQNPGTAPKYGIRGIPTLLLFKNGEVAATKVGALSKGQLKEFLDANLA", "T2 sequence (P00581 other isoform, or with tags, fused parts or gaps DEL118-145)": "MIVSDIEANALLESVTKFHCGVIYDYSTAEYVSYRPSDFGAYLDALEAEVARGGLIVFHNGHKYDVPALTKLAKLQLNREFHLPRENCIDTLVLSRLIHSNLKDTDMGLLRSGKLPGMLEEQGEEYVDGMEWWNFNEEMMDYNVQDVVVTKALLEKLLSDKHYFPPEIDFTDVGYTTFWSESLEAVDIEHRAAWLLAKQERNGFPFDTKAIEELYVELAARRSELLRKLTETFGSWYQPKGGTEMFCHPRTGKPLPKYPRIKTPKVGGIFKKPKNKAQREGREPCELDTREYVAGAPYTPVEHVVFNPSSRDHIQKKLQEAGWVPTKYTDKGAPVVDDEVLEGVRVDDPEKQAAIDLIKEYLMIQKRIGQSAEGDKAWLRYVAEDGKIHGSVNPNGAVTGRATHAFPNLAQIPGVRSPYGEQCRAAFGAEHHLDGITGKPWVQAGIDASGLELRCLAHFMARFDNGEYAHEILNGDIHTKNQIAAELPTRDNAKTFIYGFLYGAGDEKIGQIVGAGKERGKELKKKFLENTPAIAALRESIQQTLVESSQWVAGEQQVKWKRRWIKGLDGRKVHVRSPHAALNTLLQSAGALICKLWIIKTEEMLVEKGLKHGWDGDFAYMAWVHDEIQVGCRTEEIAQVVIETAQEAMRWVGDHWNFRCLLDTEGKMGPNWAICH", "experiment": "Mesophilic DNA polymerase primer extension, Seq", "details": "DNA template, 37° C. for 20–40 minutes; for primer extended by at least one base within assay time (grade): TTP replaced entirely by test compound", "method": "DNA polymerase assays were performed using Sequence 1 as primer and Sequence 2 as template. • Sequence 1 5′[Cy3][…] 3′ • Sequence 2 5′AT […]3′\nas §2, §3, §8, §5, §6, §7"}},
  "data": [
    {"molecule": "4′-C-(Aminomethyl)thymidine triphosphate [compound (9)]", "values": [
      {"measurement": "result of incorporation (termination / further chain extension)", "setting": "[1]", "value": "T/E"},
      {"measurement": "primer extended by at least one base within assay time (grade)", "setting": "[1]", "value": "++ (up to 75% of primer extended by at least one base within assay time)"},
      {"measurement": "result of incorporation (termination / further chain extension)", "setting": "[2]", "value": "T"},
      {"measurement": "primer extended by at least one base within assay time (grade)", "setting": "[2]", "value": "+ (up to 50% of primer extended by at least one base within assay time)"},
      {"measurement": "result of incorporation (termination / further chain extension)", "setting": "[3]", "value": "T"},
      {"measurement": "primer extended by at least one base within assay time (grade)", "setting": "[3]", "value": "+ (up to 50% of primer extended by at least one base within assay time)"},
      {"measurement": "result of incorporation (termination / further chain extension)", "setting": "[4]", "value": "T"},
      {"measurement": "primer extended by at least one base within assay time (grade)", "setting": "[4]", "value": "+ (up to 50% of primer extended by at least one base within assay time)"}
    ]},
    {"molecule": "4′-C-(Glycylaminomethyl)thymidine triphosphate [compound (6)]", "values": [
      {"measurement": "result of incorporation (termination / further chain extension)", "setting": "[1]", "value": "T"},
      {"measurement": "primer extended by at least one base within assay time (grade)", "setting": "[1]", "value": "++ (up to 75% of primer extended by at least one base within assay time)"},
      {"measurement": "result of incorporation (termination / further chain extension)", "setting": "[2]", "value": "T"},
      {"measurement": "primer extended by at least one base within assay time (grade)", "setting": "[2]", "value": "+ (up to 50% of primer extended by at least one base within assay time)"},
      {"measurement": "result of incorporation (termination / further chain extension)", "setting": "[3]", "value": "T"},
      {"measurement": "primer extended by at least one base within assay time (grade)", "setting": "[3]", "value": "+ (up to 50% of primer extended by at least one base within assay time)"},
      {"measurement": "result of incorporation (termination / further chain extension)", "setting": "[4]", "value": "T"},
      {"measurement": "primer extended by at least one base within assay time (grade)", "setting": "[4]", "value": "+ (up to 50% of primer extended by at least one base within assay time)"}
    ]},
    {"molecule": "Cc1cn([C@H]2C[C@H](O)[C@@](CNC(=O)C(F)(F)F)(COP(=O)(O)OP(=O)(O)OP(=O)(O)O)O2)c(=O)[nH]c1=O", "note": "[compound (8), 4′-C-(N-trifluoroacetylaminomethyl)thymidine triphosphate]", "values": [
      {"measurement": "result of incorporation (termination / further chain extension)", "setting": "[1]", "value": "T/E"},
      {"measurement": "primer extended by at least one base within assay time (grade)", "setting": "[1]", "value": "++ (up to 75% of primer extended by at least one base within assay time)"},
      {"measurement": "result of incorporation (termination / further chain extension)", "setting": "[2]", "value": "T"},
      {"measurement": "primer extended by at least one base within assay time (grade)", "setting": "[2]", "value": "+ (up to 50% of primer extended by at least one base within assay time)"},
      {"measurement": "result of incorporation (termination / further chain extension)", "setting": "[3]", "value": "T"},
      {"measurement": "primer extended by at least one base within assay time (grade)", "setting": "[3]", "value": "+ (up to 50% of primer extended by at least one base within assay time)"},
      {"measurement": "result of incorporation (termination / further chain extension)", "setting": "[4]", "value": "T"},
      {"measurement": "primer extended by at least one base within assay time (grade)", "setting": "[4]", "value": "+ (up to 50% of primer extended by at least one base within assay time)"}
    ]}
  ]
}
